Results: US7732398B2, “Medicinal uses of mu-opioid receptor agonists” (Cornell Research Foundation, Inc., priority 2000, dated 2010)
“Also recorded” adds a separate entry of the source.

Columns and labels:
[1] = In vivo pharmacokinetics in sheep; settings: preliminary data, compared with DALDA and [Dmt1]DALDA
Description: Five or more days were allowed for recovery from surgery prior to experimental studies.
In vivo pharmacokinetic studies In order to avoid the rapid distribution phase associated with intravenous bolus administration, all three peptides were administered as constant rate intravenous infusions to sheep. […] DALDA (0.6 mg/kg/hr) and [Dmt^1]DALDA (0.06 mg/kg/hr) were, therefore, infused via the venous catheter for a period of 4 hr. […] The current limit of sensitivity of the analytical method prevented the use of an even lower dose of [Dmt^1]DALDA. Blood samples (5 ml) were collected from the arterial catheter at 0, 1, 2, 3, 3.5, 4, 4.25, 4.5, 5, 6 and 7 hr.
Pharmacokinetic Analyses Plasma levels of DAMGO, DALDA and [Dmt^1]DALDA during and after the 4 h infusion were subjected to compartmental analysis using nonlinear regression (WINNONLIN). The derived pharmacokinetic constants were used to calculate the apparent volume of distribution at steady state (Vd), elimination half-life (t1/2) and clearance (CL).

[2] = system: Male Sprague-Dawley rats; test: Rat tail-flick test, antinociceptive effects after intrathecal administration; assay type: in vivo; settings: yohimbine 100 μg alone, intrathecal
Description: Male Sprague-Dawley rats (300-350 g) were used.
Under light halothane anesthesia a needle connected to a Hamilton syringe was inserted percutaneously between spinal processes of the third and fourth lumbar vertebrae into the intrathecal space. A quick flick of the tail was observed when the tip of the needle entered the intrathecal space and was used as an indicator of successful puncture (Mestre et al., 1994). Drugs were delivered in a volume of 5 μl.
Intrathecal catheterization was performed at least two days prior to the experiment as previously described (Shimoyama et al., 1996). Briefly, under halothane anesthesia, a PE-10 tube was inserted through a small hole made in the atlanto-occipital membrane and threaded 8.5 cm down the intrathecal space to the lumbosacral level of the spinal cord. Drugs were delivered via the catheter in a volume of 5 μl, followed by 10 μl saline to flush the catheter.
To assess the antinociceptive effects of the opioids, the tail-flick test was used. Radiant heat was applied to the tail at 5-8 cm from the tip using a tail-flick apparatus (IITC, Woodland Hills, Calif.). The time from the onset of the heat to the withdrawal of the tail (tail-flick latency) was measured. The intensity of the radiant heat was adjusted so that baseline latencies would fall between 2.5 and 3.5 seconds. To avoid tissue damage the heat stimulus was discontinued after seven seconds. A baseline latency was obtained for each animal prior to the administration of any drug. Subsequent response latencies were determined at designated time points. Analgesic testing was performed by a blinded investigator.
Cumulative dose-response studies were performed for each drug using the tail-flick test (Shimoyama et al., 1996), (Shimoyama et al., 1997). Each drug was tested in a group of ten rats. After measuring the baseline latencies, increasing doses of each drug were administered via an intrathecal catheter until each animal in the group became an analgesic responder. An analgesic responder was defined as one whose response tail-flick latency was two or more times the value of the baseline latency. The response latency after each dosing was determined at peak analgesia, which was 15, 30 and 45 min after the administration of the MOR, DALDA and [Dmt^1]DALDA, respectively (based on preliminary studies). Any subsequent dosing was performed immediately after the determination of response latency. The percentage of analgesic responders in the group of rats for each cumulative dose was calculated, and a cumulative dose-response curve was constructed. The dose-response data were analyzed by the BLISS-21 computer program. This program maximized the log-likelihood function to fit a parallel set of gaussian normal sigmoid curves to the dose-response data and provides ED50 values, 95% confidence interval (CI) and relative potency estimates (Umans and Inturrisi, 1981).
The effect of naloxone on the antinociceptive effects of intrathecal MOR, DALDA and [Dmt^1]DALDA was examined. An equipotent dose (3 times the ED50 value determined in Study 1) of MOR, DALDA or [Dmt^1]DALDA was given via an intrathecal catheter. Tail-flick latencies were measured prior to the administration of any drug and at the time of peak analgesia for each compound (at 15, 30 and 45 minutes after administration, for MOR, DALDA and [Dmt^1]DALDA, respectively). Naloxone hydrochloride at a dose of 82.5 nmol or saline was administered via the intrathecal catheter 10 minutes prior to the second tail-flick testing. Four rats were tested for each combination of drugs. Data were analyzed using the paired t-test.
A dose 3 times the ED50 value of MOR, DALDA, or [Dmt^1]DALDA was administered intrathecally. Tail-flick latencies were measured prior to the administration of any drug (=baseline latency) and at the time of peak analgesia (=response latency). […]

Row | Structure (SMILES) | elimination in sheep [1] | effect on tail-flick latency [2]
1 | C[C@@H](NC(=O)[C@@H](N)Cc1ccc(O)cc1)C(=O)NCC(=O)N(C)[C@@H](Cc1ccccc1)C(=O)NCCO [DAMGO] | much more rapid elimination | –
2 | COC(=O)[C@@H]1[C@H]2C[C@H]3c4[nH]c5ccccc5c4CCN3C[C@@H]2CC[C@@H]1O [Yohimbine, yohimbine, reference compound] | – | no effect; also recorded: not having any effect on tail-flick latency by itself
